From patent US9920042B2, “Compounds for use in the treatment of mycobacterial infections” (Universite de Droit et de la Sante de Lille 2, priority 2012, dated 2018)
Where two headings read alike, the source gives them in different places.

Experiments:
[1] = tested on: M. tuberculosis alone or macrophages infected by M. tuberculosis; experiment: Potentiation of ethionamide cell test (High Content Screening); format: cell-based; details: ligand concentration potentiating ten times the activity of ethionamide, ethionamide constant at 0.1 μg/mL (1/10th of its CMI99)
EthR protein = EthR protein (Mycobacterium tuberculosis, UniProt P9WMC1); experiment: TSA test (Thermal Shift Assay), fluorescence with Sypro Orange; format: binding, M. tuberculosis; details: melting temperature shift of EthR with ligand vs protein alone
Sequence of EthR protein (P9WMC1 whole entry, looked up): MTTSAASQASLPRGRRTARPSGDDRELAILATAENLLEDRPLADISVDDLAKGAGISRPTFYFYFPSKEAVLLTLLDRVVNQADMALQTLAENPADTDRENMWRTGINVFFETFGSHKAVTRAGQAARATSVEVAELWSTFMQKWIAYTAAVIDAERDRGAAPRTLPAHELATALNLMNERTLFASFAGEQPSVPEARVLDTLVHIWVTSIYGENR

| Compound | EC50 ([1]; read-out: EC50) | ΔTm (EthR protein) | EC50 [1] |
| --- | --- | --- | --- |
| Cc1nc(-c2ccc(S(=O)(=O)NCCCC(F)(F)F)cc2)cs1 [Compound 27, 4-(2-methylthiazol-4-yl)-N-(4,4,4-trifluorobutyl)benzene sulfonamide] | > 2500 nM | 6.6 °C | – |
| CCOC(=O)Cc1nc(-c2ccc(C(=O)NCCC(F)(F)F)cc2)cs1 [Compound 52] | 190 nM | 10.1 °C | – |
| CC(C)CCNS(=O)(=O)c1ccc(-c2csc(CC(N)=O)n2)cc1 [Compound 21, 2-(4-(4-(N-isopentylsulfamoyl)phenyl)thiazol-2-yl)acetamide] | 5000 nM | 4.6 °C | – |
| O=C(NCCC(F)(F)F)c1ccc(-c2cscn2)cc1 [Compound 56, 4-(thiazol-4-yl)-N-(3,3,3-trifluoropropyl)benzamide] | 360 nM | 8.1 °C | – |
| Cc1nc(-c2ccc(S(=O)(=O)NCC(F)(F)C(F)(F)F)cc2)cs1 [Compound 25, 4-(2-methylthiazol-4-yl)-N-(2,2,3,3,3-pentafluoropropyl)benzene sulfonamide] | > 20000 nM | 8.6 °C | – |
| CC(C)CCc1cn(-c2ccc(C(=O)NCCC(F)(F)F)cc2)nn1 [Compound 93, 4-(4-isopentyl-1H-1,2,3-triazol-1-yl)-N-(3,3,3-trifluoropropyl)benzamide] | > 10000 nM | 3.8 °C | – |
| CC(C)(C)S(=O)(=O)Cc1nc(-c2ccc(S(=O)(=O)NCCC(F)(F)F)cc2)cs1 [Compound 39, 4-(2-(tert-butylsulfonylmethyl)thiazol-4-yl)-N-(3,3,3-trifluoropropyl)-benzene sulfonamide] | 200 nM | 7.3 °C | – |
| O=C(NCCC(F)(F)F)c1ccc(-n2cc(CCO)nn2)cc1 [Compound 97, 4-(4-(2-hydroxyethyl)-1H-1,2,3-triazol-1-yl)-N-(3,3,3-trifluoropropyl)-benzamide] | 2000 nM | 1.2 °C | – |
| Cc1nnc(-c2ccc(C(=O)NCCC(F)(F)F)cc2)o1 [Compound 80, 4-(5-methyl-1,3,4-oxadiazol-2-yl)-N-(3,3,3-trifluoropropyl)benzamide] | 960 nM | – | – |
| CC(C)NC(=O)Cc1nc(-c2ccc(S(=O)(=O)NCCC(F)(F)F)cc2)cs1 [Compound 36, N-isopropyl-2-(4-(4-(N-(3,3,3-trifluoropropyl)sulfamoyl)phenyl)thiazol-2-yl)acetamide] | 210 nM | – | – |
| Cc1nc(-c2ccc(S(=O)(=O)NCC(F)(F)F)cc2)cs1 [Compound 26, 4-(2-methylthiazol-4-yl)-N-(2,2,2-trifluoroethyl)benzene sulfonamide] | 7900 nM | 6.3 °C | – |
| Cc1nc(-c2ccc(C(=O)NCCC(F)(F)F)cn2)cs1 [Compound 71, 6-(2-methylthiazol-4-yl)-N-(3,3,3-trifluoropropyl)nicotinamide] | 1700 nM | – | – |
| CC(C)CCCc1nc(-c2ccc(C(=O)NCCC(F)(F)F)cc2)cs1 [Compound 47, 4-(2-(4-methylpentyl)thiazol-4-yl)-N-(3,3,3-trifluoropropyl)benzamide] | 30 nM | 13.0 °C | – |
| Cc1nc(-c2ccc(C(=O)NCCC(F)(F)F)cc2)no1 [Compound 75, 4-(5-methyl-1,2,4-oxadiazol-3-yl)-N-(3,3,3-trifluoropropyl)benzamide] | 62 nM | – | – |
| CC(C)(C)S(=O)(=O)Cc1nc(-c2ccc(C(=O)NCCC(F)(F)F)cc2)cs1 [Compound 50, 4-(2-(tert-butylsulfonylmethyl)thiazol-4-yl)-N-(3,3,3-trifluoropropyl)-benzamide] | 41 nM | 9.6 °C | – |
| Cc1nc(-c2ccc(S(=O)(=O)NCC(F)(F)C(F)(F)C(F)(F)F)cc2)cs1 [Compound 28, N-(2,2,3,3,4,4,4-heptafluorobutyl)-4-(2-methylthiazol-4-yl)benzene sulfonamide] | – | 7.3 °C | > 2500 nM |
| O=C(NCCC(F)(F)F)c1ccc(-n2cc(C3CC3)nn2)cc1 [Compound 95, 4-(4-cyclopropyl-1H-1,2,3-triazol-1-yl)-N-(3,3,3-trifluoropropyl)-benzamide] | 1700 nM | 3.5 °C | – |
| CC(C)CCNS(=O)(=O)c1ccc(-c2csc(CC#N)n2)cc1 [Compound 17, 4-(2-(cyanomethyl)thiazol-4-yl)-N-isopentyl benzene sulfonamide] | 7900 nM | 5.3 °C | – |
| CC(C)OC(=O)Cc1nc(-c2ccc(C(=O)NCCC(F)(F)F)cc2)cs1 [Compound 53, 2-(4-(4-(3,3,3-trifluoropropylcarbamoyl)phenyl)thiazol-2-yl(isopropyl acetate] | 330 nM | 13.2 °C | – |
| CCCS(=O)(=O)NCc1nc(-c2ccc(C(=O)NCCC(F)(F)F)cc2)cs1 [Compound 103, 4-(2-(propylsulfonamidomethyl)thiazol-4-yl)-N-(3,3,3-trifluoropropyl)benzamide] | 320 nM | 6.6 °C | – |

| Compound | EC50 ([1]; read-out: EC50) | ΔTm (EthR protein) | EC50 [1] |
| --- | --- | --- | --- |
| [N-]=[N+]=Nc1ccc(C(=O)NCCC(F)(F)F)cc1 [Compound 92, 4-azido-N-(3,3,3-trifluoropropyl)benzamide] | 1100 nM | 6.0 °C | – |
| Cc1nc(-c2ccc(S(=O)(=O)NCCC(C)(C)C)cc2)cs1 [Compound 23, N-(3,3-dimethylbutyl)-4-(2-methylthiazol-4-yl)benzene sulfonamide] | > 20000 nM | 2.3 °C | – |
| O=C(NCCC(F)(F)F)c1ccc(-c2csc(CNS(=O)(=O)c3ccccc3)n2)cc1 [Compound 104, 4-(2-(phenylsulfonamidomethyl)thiazol-4-yl)-N-(3,3,3-trifluoro-propyl)benzamide] | 150 nM | 1.2 °C | – |
| O=C(NCCC(F)(F)F)c1ccc(-c2nsc(CO)n2)cc1 [Compound 90, 4-(5-(hydroxymethyl)-1,2,4-thiadiazol-3-yl)-N-(3,3,3-trifluoropropyl)-benzamide] | 130 nM | – | – |
| Cc1nc(-c2ccc(C(=O)NCCC(F)(F)F)cc2)c(F)s1 [Compound 62, 4-(5-fluoro-2-mthylthiazol-4-yl)-N-(3,3,3-trifluoropropyl)benzamide] | 55 nM | – | – |
| CC(C)OC(=O)c1nc(-c2ccc(C(=O)NCCC(F)(F)F)cc2)cs1 [Compound 55, 4-(4-(3,3,3-trifluoropropylcarbamoyl)phenyl)thiazole-2-isopropyl carboxylate] | 730 nM | 8.2 °C | – |
| Cc1nc(-c2ccc(C(=O)NCCC(F)(F)F)nc2)cs1 [Compound 67, 5-(2-methylthiazol-4-yl)-N-(3,3,3-trifluoropropyl)picolinamide] | 120 nM | – | – |
| Cc1nc(-c2ccc(C(=O)NCCC(F)(F)F)cc2)c(Cl)s1 [Compound 64, 4-(5-chloro-2-methylthiazol-4-yl)-N-(3,3,3-trifluoropropyl)benzamide] | 350 nM | 8.7 °C | – |
| Cc1nnc(-c2ccc(C(=O)NCCC(F)(F)F)cc2)s1 [Compound 83, 4-(5-methyl-1,3,4-thiadiazol-2-yl)-N-(3,3,3-trifluoropropyl)benzamide] | 1400 nM | – | – |
| CCOC(=O)c1nc(-c2ccc(C(=O)NCCC(F)(F)F)cc2)cs1 [Compound 54, 4-(4-(3,3,3-trifluoropropylcarbamoyl)phenyl)thiazole-2-ethyl carboxylate] | > 2500 nM | 9.6 °C | – |
| O=C(NCCC(F)(F)F)c1ccc(C#CCNS(=O)(=O)c2ccccc2)cc1 [Compound 112, 4-(3-(phenylsulfonamido)prop-1-ynyl)-N-(3,3,3-trifluoropropyl)-benzamide] | 230 nM | 4.2 °C | – |
| CC(C)Cc1cn(-c2ccc(C(=O)NCCC(F)(F)F)cc2)nn1 [Compound 94, 4-(4-isobutyl-1H-1,2,3-triazol-1-yl)-N-(3,3,3-trifluoropropyl)benzamide] | 1200 nM | 4.1 °C | – |
| CS(=O)(=O)NCC#Cc1ccc(S(=O)(=O)NCCC(F)(F)F)cc1 [Compound 108, 4-(3-(methylsulfonamido)prop-1-ynyl)-N-(3,3,3-trifluoropropyl)-benzene sulfonamide] | > 10000 nM | 1.4 °C | – |
| COC(=O)Cc1nc(-c2ccc(S(=O)(=O)NCCC(F)(F)F)cc2)cs1 [Compound 33, 2-(4-(4-(N-(3,3,3-trifluoropropyl)sulfamoyl)phenyl)thiazol-2-yl)methyl acetate] | 860 nM | 9.5 °C | – |
| Cc1nc(-c2ccc(C(=O)NCCC(F)(F)F)cc2)co1 [Compound 72, 4-(2-methyloxazol-4-yl)-N-(3,3,3-trifluoropropyl)benzamide] | 180 nM | – | – |
| Cc1noc(-c2ccc(C(=O)NCCC(F)(F)F)cc2)n1 [Compound 78, 4-(3-methyl-1,2,4-oxadiazol-5-yl)-N-(3,3,3-trifluoropropyl)benzamide] | 210 nM | – | – |
| O=S(=O)(NCCC(F)(F)F)c1ccc(-c2nc3ccccc3s2)cc1 [Compound 42, 4-(benzo[d]thiazol-2-yl)-N-(3,3,3-trifluoropropyl)benzene sulfonamide] | 300 nM | – | – |
| CCOC(=O)Cc1nc(-c2ccc(S(=O)(=O)NCCC(F)(F)F)cc2)cs1 [Compound 34] | 150 nM | 0.15 °C | – |
| Cc1csc(-c2ccc(S(=O)(=O)NCCC(F)(F)F)cc2)n1 [Compound 41, 4-(4-methylthiazol-2-yl)-N-(3,3,3-trifluoropropyl)benzene sulfonamide] | 660 nM | 6.8 °C | – |
| O=S(=O)(NCC#Cc1ccc(S(=O)(=O)NCCC(F)(F)F)cc1)c1ccccc1 [Compound 106, 4-(3-(phenylsulfonamido)prop-1-ynyl)-N-(3,3,3-trifluoropropyl)-benzene sulfonamide] | 1800 nM | 3.3 °C | – |
